Patent publication US4226610A, “Herbicidal compounds, preparation thereof and herbicides containing the same” (Meiji Selka Kaisha, Ltd., priority 1978, dated 1980)

Tests used:
hornwort = assay: Experiment 7 application to water; assay type: in vivo, Ceratophyllum demersum L.; design: scale not given here
Excerpt: (§1) A black soil was packed in 50 cm. square concrete pots and water was poured there-onto at 50 cm. in depth. Hornwort (Ceratophyllum demersum L.), stonewort (Chara Braunii Gmel.) and salvinia (Salvinia natans All.) were transplanted and pond scum (Spirogira crassa Kutz) and diatoms (Bacillariophyta) were floated in the water.
(§2) Then, the compounds of the invention were applied dropwise onto the surface of the water so that the prescribed concentrations in the water are obtained as indicated in Table 9.

stonewort = assay: Experiment 7 application to water; assay type: in vivo, Chara Braunii Gmel.; design: scale not given here
Excerpt: as §1, §2

Japanese bush cranberry = assay: Experiment 3 foliar application to naturally growing shrubs; assay type: in vivo, Viburnum dilatatum Thunb.; conditions: after 3 months
In short: (§3)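 Compounds, diluted to prescribed concentrations with 0.1% octylphenyl polyoxyethanol as surfactant, were sprayed onto the foliage of naturally growing shrubs at 150 liter per 10 are. Kill was scored on a 0 (no effect) to 5 (death) index at 1 and 3 months. Regrowth was graded from − (no reproduction) to +++ (maximum) at 3 months.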

aginashi = assay: Experiment 6 spray on aquatic plants in concrete pots; assay type: in vivo, Sagittaria Aginashi Makino; conditions: 3 months
Excerpt: (§4) The detail of the assessment made in the following Experiments of the invention was as follows:
(§5) Four months after treatment, evaluation was made for inhibition of reproduction expressed in terms of symbols ranging from (-) to (+++) where (-) means no reproduction, namely complete suppression of reproduction, (±) remarkable suppression of reproduction; (+) considerable suppression of reproduction; (++) medium supprestion of reproduction; and (+++) no suppression of reproduction.
(§6) A paddy field soil was packed in 50 cm. square concrete pots. omodaka (Sagittaria trifolia L.), urikawa (Sagittaria pygmaea Miq.), prog-bit (Hydrocharis dubia) and aginashi (Sagittaria Aginashi Makino) were transplanted; then water was poured onto the soil at 5 cm. depth.
(§7) Further, water hyacinth, greater-duckweed (Spirodela polyrhiza Schleid.) and duckweed (Lemna paucicostata Hegelm) were floated on the water.
(§8) After one month, the compounds of the invention diluted to the prescribed concentrations as indicated in Table 8 were sprayed in an amount of 100 liter per 10 are. As a surfactant, 0.1% of octylphenyl polyoxyethanol was added thereto.
(§9) The killing index (0, no effect; 5, death) after 21 days and 3 months and the reproduction-inhibiting effect (-, no reproduction; +++, maximum reproduction) after 3 months were determined.

torch azalea = assay: Experiment 3 foliar application to naturally growing shrubs; assay type: in vivo, Rhododendoron Kaempferi Planch.; conditions: after 3 months
In short: as §3

cockspar grass = assay: Experiment 1 foliar application to naturally growing weeds; assay type: in vivo, Echinochloa Crusgalli P. Beauv.; conditions: 2 months
In short: (§10)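 Dilute compounds to prescribed concentrations; add 0.1% octylphenyl polyoxyethanol; spray foliage of in-situ weeds at 150 liter per 10 are. Score killing 0–5 on day 21. Score reproduction (-) to (+++) at month 2 (cockspar grass) or month 4 (chigaya, azumanezasa, warunasubi).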

hedge bindweed = assay: as above; assay type: in vivo, Calystegis hederacea Wall.; conditions: 4 months
In short: (§11)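 Test compounds, diluted to prescribed concentrations with 0.1% octylphenyl polyoxyethanol surfactant, were sprayed onto foliage of naturally growing weeds at 150 liter per 10 are. Killing index (0, no effect; 5, death) was scored at 21 days. Reproduction was scored from (-), complete suppression, to (+++), none, at 2 months for cockspar grass and 4 months for the other weeds.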

duckweed = assay: Experiment 6 spray on aquatic plants in concrete pots; assay type: in vivo, Lemna paucicostata Hegelm; conditions: 3 months
Excerpt: as §4, §5, §6, §7, §8, §9

water hyacinth = assay: as above; assay type: in vivo, Eichhornia crassipes Solms; conditions: 3 months
Excerpt: as §4, §5, §6, §7, §8, §9

kiichigo = assay: Experiment 3 foliar application to naturally growing shrubs; assay type: in vivo, Rubus palmatsu Thunb. forma coptophyllus Makino; conditions: after 3 months
In short: as §3

yabugarashi = assay: Experiment 1 foliar application to naturally growing weeds; assay type: in vivo, Cayratia japonica Houtt.; conditions: 4 months
In short: as §11

manna grass = assay: as above; assay type: in vivo, Digitaria adsceudes Henr.; conditions: 2 months
In short: as §10

yamazakura = assay: Experiment 3 foliar application to naturally growing shrubs; assay type: in vivo, Prunus donarium Sieb. var. spontanae Makino; conditions: after 3 months
In short: as §3

diatoms = assay: Experiment 7 application to water; assay type: in vivo, Bacillariophyta; design: key: 0: no effect; 5: perfect control
Excerpt: as §1, §2

salvinia = assay: Experiment 7 application to water; assay type: in vivo, Salvinia natans Allioni; design: scale not given here
Excerpt: as §1, §2

azumanezasa = assay: Experiment 1 foliar application to naturally growing weeds; assay type: in vivo, Pleioblastus Chino Makino; conditions: for Reproduction-inhibiting effect: 4 months; for Killing index of Upperground parts: 21 days
In short: as §10

white clover = assay: as above; assay type: in vivo, Trifolium repens L.; conditions: for Reproduction-inhibiting effect: 4 months
In short: as §11

progbit = assay: Experiment 6 spray on aquatic plants in concrete pots; assay type: in vivo, Hydrocharis dubia; conditions: 3 months
Excerpt: as §4, §5, §6, §7, §8, §9

Compound `CP(=O)(O)CCC(N)C(=O)O` (racemic) [DL-AMPB choline] has a controlling effect (hornwort; 1 ppm, 3 months) of 1, a controlling effect (hornwort; 1 ppm, 21 days) of 2 and a controlling effect (hornwort; 3 ppm, 3 months) of 5. It also gave a controlling effect (hornwort; 3 ppm, 21 days) of 4.5, a controlling effect (hornwort; 10 ppm, 3 months) of 5 and a controlling effect (hornwort; 10 ppm, 21 days) of 5. The controlling effect (stonewort; 1 ppm, 3 months) was 1, the controlling effect (stonewort; 1 ppm, 21 days) was 3 and the controlling effect (stonewort; 3 ppm, 3 months) was 5. It also gave a controlling effect (stonewort; 3 ppm, 21 days) of 4.5, a controlling effect (stonewort; 10 ppm, 3 months) of 5 and a controlling effect (stonewort; 10 ppm, 21 days) of 5. For the same compound, the Reproduction-inhibiting (Japanese bush cranberry; 0.05%) was “+++”, the Reproduction-inhibiting (Japanese bush cranberry; 0.1%) was “++” and the Reproduction-inhibiting (Japanese bush cranberry; 0.2%) was “+”. For the same compound, the Reproduction-inhibiting effect (aginashi; 0.05%) was “++”, the Reproduction-inhibiting effect (aginashi; 0.1%) was “±” and the Reproduction-inhibiting effect (aginashi; 0.2%) was “-”. For the same compound, the Reproduction-inhibiting (torch azalea; 0.05%) was “++”, the Reproduction-inhibiting (torch azalea; 0.1%) was “-” and the Reproduction-inhibiting (torch azalea; 0.2%) was “-”. The Reproduction-inhibiting effect (cockspar grass; 0.05%) was “++”, the Reproduction-inhibiting effect (cockspar grass; 0.1%) was “±” and the Reproduction-inhibiting effect (cockspar grass; 0.2%) was “-”. For the same compound, the Reproduction-inhibiting effect (hedge bindweed; 0.05%) was “++”, the Reproduction-inhibiting effect (hedge bindweed; 0.1%) was “±” and the Reproduction-inhibiting effect (hedge bindweed; 0.2%) was “-”. For the same compound, the Reproduction-inhibiting effect (duckweed; 0.05%) was “+”, the Reproduction-inhibiting effect (duckweed; 0.1%) was “-” and the Reproduction-inhibiting effect (duckweed; 0.2%) was “-”. The Reproduction-inhibiting effect (water hyacinth; 0.05%) was “+++”, the Reproduction-inhibiting effect (water hyacinth; 0.1%) was “++” and the Reproduction-inhibiting effect (water hyacinth; 0.2%) was “-”. The Reproduction-inhibiting (kiichigo; 0.05%) was “+”, the Killing index (kiichigo; 0.1%) was 4.5 and the Reproduction-inhibiting (kiichigo; 0.1%) was “±”. For the same compound, the Reproduction-inhibiting (kiichigo; 0.2%) was “-”, the Reproduction-inhibiting effect (yabugarashi; 0.05%) was “++” and the Reproduction-inhibiting effect (yabugarashi; 0.1%) was “±”. For the same compound, the Reproduction-inhibiting effect (yabugarashi; 0.2%) was “-”, the Reproduction-inhibiting effect (manna grass; 0.05%) was “++” and the Reproduction-inhibiting effect (manna grass; 0.1%) was “±”. For the same compound, the Reproduction-inhibiting effect (manna grass; 0.2%) was “-”, the Reproduction-inhibiting (yamazakura; 0.05%) was “++” and the Reproduction-inhibiting (yamazakura; 0.1%) was “-”. For the same compound, the Reproduction-inhibiting (yamazakura; 0.2%) was “-”, the controlling effect (diatoms; 1 ppm, 3 months) was 1 and the controlling effect (diatoms; 1 ppm, 21 days) was 3. It also gave a controlling effect (diatoms; 3 ppm, 3 months) of 5, a controlling effect (diatoms; 3 ppm, 21 days) of 4 and a controlling effect (diatoms; 10 ppm, 3 months) of 5. It also gave a controlling effect (diatoms; 10 ppm, 21 days) of 5, a controlling effect (salvinia; 1 ppm, 3 months) of 2 and a controlling effect (salvinia; 1 ppm, 21 days) of 3. For the same compound, the controlling effect (salvinia; 3 ppm, 3 months) was 5, the controlling effect (salvinia; 3 ppm, 21 days) was 4 and the controlling effect (salvinia; 10 ppm, 3 months) was 5. The controlling effect (salvinia; 10 ppm, 21 days) was 5, the Reproduction-inhibiting effect (azumanezasa; 0.05%) was “++” and the “Killing index of Upperground parts” value (azumanezasa; 0.05%) was 1.5. For the same compound, the Reproduction-inhibiting effect (azumanezasa; 0.1%) was “±”, the “Killing index of Upperground parts” value (azumanezasa; 0.1%) was 3.5 and the Reproduction-inhibiting effect (azumanezasa; 0.2%) was “-”. The Reproduction-inhibiting effect (white clover; 0.05%) was “++”, the “Killing index of Upperground parts” value (white clover; 0.05%, 21 days) was 1.5 and the Reproduction-inhibiting effect (white clover; 0.1%) was “±”. For the same compound, the Reproduction-inhibiting effect (white clover; 0.2%) was “-”, the Reproduction-inhibiting effect (progbit; 0.05%) was “++” and the Reproduction-inhibiting effect (progbit; 0.1%) was “±”. For the same compound, the Reproduction-inhibiting effect (progbit; 0.2%) was “-”.
